Measured values taken from patent US20250369050A1, “METHODS AND COMPOSITIONS RELATED TO ASSESSMENT AND TREATMENT OF KIDNEY DISEASE” (Board of Regents, The University of Texas System, priority 2022, published 2025).
Where two headings read alike, the source gives them in different places.

Legend:
[1] = tested on: Kidney tubules (MCT) cells; assay: Adenine-induced fibronectin accumulation in MCT cells (FIG. 19); type: cell-based, mouse
Experimental: FIG. 19. Effect of Rapamycin and NaHS on Adenine. […] A. Kidney tubules (MCT) cells were pre-incubated with 10 nM of rapamycin for 30 min followed by incubation with 20 μM of adenine for 15 min. B. MCT cells were incubated with 20 μM of adenine and 250 μM NaHS for 15 min.

db/db mice [2] = tested on: db/db mice
Experimental: FIG. 26. […] NaHS administered for 4 weeks to db/db mice and db/m mice and MTAP/-b-actin and fibronectin/b-actin levels were evaluated by immunoblotting. Urine ACR was measured at end of 4-week period of NaHS administration.

kidney cells [3] = assay: Protection of kidney cells from cell death by MTAP inhibitor (FIG. 18); type: cell-based; conditions: cell stress due to reduction of MDM2
[4] = tested on: mice undergoing ischemia-reperfusion injury; assay: Ischemia-reperfusion injury in mice, BUN (FIG. 25); type: in vivo, mouse; conditions: inhibitor given once before ischemia 30 min and reperfusion, BUN 24 h later
Experimental: FIG. 25. MTAP inhibitor DADMe-ImmA given once before ischemia-reperfusion injury prevents an increase in BUN levels in mice undergoing ischemia-reperfusion injury. Mice underwent ischemia for 30m followed by reperfusion and 24 h later, the BUN was measured.

db/db mice [5] = assay: MTAP inhibitor for 8 weeks in db/db mice (FIG. 32, 33); type: in vivo, mouse
Experimental: FIG. 32. […] Control (db/m) and diabetic (db/db) mice were treated from week 12 to week 20 with MTAP inhibitor (10 mg/kg/day in drinking water) and 24 h urine samples were collected and measured for albumin/creatinine ratio (A), hydrogen peroxide/creatinine ratio (B) and collagen/creatinine ratio (C). (*p<0.05, ANOVA, n=5-6/group)
FIG. 33. […] Control (db/m) and diabetic (db/db) mice were treated from week 12 to week 20 with MTAP inhibitor (10 mg/kg/day in drinking water) and kidney weight was standardized per tibia length (A). Kidney cortex was immunoblotted for fibronectin and laminin y1 and standardized for b-actin with quantitative data shown in (B) and (C), respectively. (*p<0.05, ANOVA, n=5-6/group)

[6] = tested on: mouse insulin receptor mRNA; assay: Insulin receptor mRNA knockdown in MCT cells by qRTPCR (FIG. 34); type: cell-based; conditions: reverse transfection, 72 h
Experimental: (§1) FIG. 34. siRNAs to insulin receptor (IR) based on sequence in mouse and rat reduces IR in mouse kidney cells. Mouse cortical tubular (MCT) cells were reverse transfected with siRNAs targeting mouse and rat insulin receptor mRNA (m/r IRsiRNA #1 and m/r IR siRNA #5) using RNAiMax (6 ul in optiMEM) and plated on 6 well plates. After 72 h of incubation, total RNA was isolated and subjected to cDNA synthesis followed by qRTPCR (n=6/group, ****p<0.0001).
as §1, with “34 illustrates the administration of the siRNA for the insulin receptor to mice treated with adenine reduced insulin receptor in the kidney but not in liver and prevented the increase in blood urea nitrogen levels (FIG. 35). In FIG. 34,” for “34.”

[7] = tested on: mice challenged with adenine; assay: In vivo IRsiRNA #1 with adenine challenge in drinking water in mice (FIG. 35); set-up: species or system mouse
Experimental: FIG. 35. In vivo administration of IRsiRNA #1 reduced IR specifically in mouse kidney and prevented adenine-induced rise in BUN levels in mice. Mice were administered vehicle or kidney targeting IRsiRNA #1 prior to being challenged with adenine (5 mM) in the drinking water for 4 days.
In FIG. 35, in vivo administration of IRsiRNA #1 reduced IR specifically in mouse kidney and prevented adenine-induced rise in Blood Urea Nitrogen (BUN) levels in mice. Mice were administered vehicle or kidney targeting IRsiRNA #1 prior to being challenged with adenine (5 mM) in the drinking water for 4 days.

[8] = tested on: patients with hyperfiltration; assay: Urine adenine in type 1 diabetic patients with hyperfiltration treated with empagliflozin (FIG. 23); type: in vivo, human; conditions: high risk patients with hyperfiltration, after 8 weeks of treatment
Source text: FIG. 23. Empagliflozin reduces urine adenine levels in patients with hyperfiltration. Hyperfilterers (red lines and dots) and normofilterers (blue lines and dots). Overall effect of treatment (Visit 3 and 4 vs. Visit 12 and 13) on least square mean changes to log-transformed adenine levels is reported. Significant p-values stated. *p<0.05, **p<0.01.

[9] = tested on: human insulin receptor mRNA; assay: Insulin receptor mRNA knockdown in HK2 cells by qRTPCR (FIG. 36); type: cell-based; conditions: 96 h after transfection, vs control siRNA
Experimental: FIG. 36. siRNA to Human and Pig Insulin receptor is effective to reduce mRNA for Insulin receptor in human kidney cells. Human kidney (HK2) proximal tubular cells were transfected with siRNA (4 ul from 10 um stock) using RNAiMax (6 ul in optiMEM) and plated on 6 well plates. After 48 h, the media was replaced with fresh media. After 96 h of the transfection, total RNA was isolated and subjected to cDNA synthesis followed by qRTPCR.
In this non-limiting example, siRNA targeting human/pig insulin receptor mRNA can reduce human insulin receptor in human tubular cells. (FIG. 36). In FIG. 36, siRNA to human and pig insulin receptor is effective to reduce mRNA for insulin receptor in human kidney cells. Human kidney (HK2) proximal tubular cells were transfected with siRNA (4 ul from 10 um stock) using RNAiMax (6 ul in optiMEM) and plated on 6 well plates. After 48 h, the media was replaced with fresh media. After 96 h of the transfection, total RNA was isolated and subjected to cDNA synthesis followed by qRTPCR.

[10] = tested on: human proximal tubular cells (HK2); assay: ATP generation by Seahorse analysis in HK2 cells exposed to adenine; type: cell-based
kidney cells [11] = assay: Adenine toxicity to kidney cells (FIG. 13); type: cell-based
kidney tubular cells = assay: Adenine stimulation of extracellular matrix molecules in kidney tubular cells; type: cell-based
mTOR pathway = assay: Adenine-induced stimulation of mTOR pathway (P-S6K) in tubular cells (FIG. 28); type: cell-based; conditions: adenine challenge
Source text: The downstream pathways stimulated by adenine are PI3Kinase, AKT and mTOR (FIG. 28). […] Once mTOR is inhibited the downstream effect of adenine to stimulate matrix accumulation was reduced (FIG. 19).

mice = assay: Adenine administration to mice (FIG. 30, 31); type: in vivo, mouse
Source text: FIG. 30. Adenine administration to mice increases serum sTNFR1 (A), plasma KIM-1 (B). (n=12 in control group and n=7 in adenine treated group, *p<0.05, **p<0.01, ***p<0.001, […] vs control by t-test or One-way ANOVA).
FIG. 31. Adenine administration to mice increases kidney (A) and heart (B) hypertrophy and mTOR mediated matrix molecules in the kidney (C). Quantitative assessment of phosphor-S6 kinase as a measure of mTOR (D), fibronectin/-b-actin (E) and collagen type 1 alpha 2 chain (F). (n=12 in control group and n=7 in adenine treated group, *p<0.05, **p<0.01, ***p<0.001, […] vs control by t-test or One-way ANOVA).
Patients with type 1 diabetes (n=8) or type 2 diabetes (n=8) have an increase in tissue levels of adenine in their kidney biopsies as compared to healthy controls (n=5)(FIG. 29). Adenine administration is causative of the major manifestations of diabetic kidney disease in a mouse model, including serum soluble tumor necrosis factor receptor-1 (sTNFR1) and plasma kidney injury […] (KIM1) (FIG. 30). Adenine also stimulates kidney hypertrophy and heart hypertrophy (FIG. 31) as well as kidney phosphor-S6-kinase (marker of mTOR activity), kidney fibronectin and kidney collagen type 1 alpha-2 chain (FIG. 31). An inhibitor of MTAP (DADMe-ImmA 10 mg/kg/d in drinking water for 8 weeks) reduces urine ACR, urine hydrogen peroxide (urine H2O2) and urine collagen in a mouse model of diabetic kidney disease (db/db mouse) (FIG. 32).

[12] = 10 mg/kg/day in drinking water, week 12 to 20, 24 h urine
[13] = 10 mg/kg/day, 8 weeks, kidney cortex immunoblot
[14] = adenine administration vs control

With `[Na+].[SH-]` [NaHS, sodium hydrogen sulfide] the adenine-induced fibronectin production ([1]; MCT cells, 20 μM adenine and 250 μM NaHS for 15 min) was “inhibit adenine-induced fibronectin production”, the “adenine-induced disease causing pathways (mTOR)” value ([1]; kidney cells, NaHS) was “protects against” and the “healing pathways (AMPK)” value ([1]; kidney cells, NaHS) was “improving healing pathways (AMPK)”. For the same molecule, the MTAP/b-actin by immunoblotting (db/db mice [2]; NaHS 4 weeks, kidney) was “significant reduction”, the fibronectin/b-actin by immunoblotting (db/db mice [2]; NaHS 4 weeks, kidney) was “significant reduction” and the “urine ACR” value (db/db mice [2]; end of 4-week NaHS administration) was “significant reduction”.

`CSC[C@H]1CN(Cc2c[nH]c3c(N)ncnc23)C[C@@H]1O` [MT-DADMe-ImmA, Methylthio-DADMe-Immucillin] was tested, and the “protection of kidney cells from cell death” value (kidney cells [3]) was “protects kidney cells from cell death”, the BUN [4] was “no significant increase in BUN” and the “urine ACR” value (db/db mice [5]; [12]) was “reduces”. The “urine H2O2” value (db/db mice [5]; [12]) was “reduces”, the urine collagen (db/db mice [5]; [12]) was “reduces” and the kidney fibronectin (db/db mice [5]; [13]) was “reduced”. The “kidney laminin yI” value (db/db mice [5]; [13]) was “reduced” and the kidney hypertrophy (db/db mice [5]; 10 mg/kg/day, 8 weeks, kidney weight per tibia length) was “reduced”.

In the case of “m/r IR siRNA #5: siRNA targeting mouse/rat IR mRNA, SEQ ID NO. 9 (+) and SEQ ID NO. 10 (−) (sense AAAUCAGUUCCUCAAAUUGACCAAU; antisense AUUGGUCAAUUUGAGGAACUGAUUUUG; listed as RNA, chemistry not fully specified)”, the “mouse insulin receptor at mRNA level” value [6] is reported as “significant reduction”.

With “m/r IRsiRNA #1: siRNA targeting mouse/rat IR mRNA, SEQ ID NO. 1 (+) and SEQ ID NO. 2 (−) (sense GGCUCUGUCCGCAUCGAGAAGAAUA; antisense UAUUCUUCUCGAUGCGGACAGAGCCCC; listed as RNA, chemistry not fully specified)” the “mouse insulin receptor at mRNA level” value [6] was “significant reduction”, the “IR in mouse kidney cortex” value ([7]; day 4, immunoblot vs control sample) was “reduction of IR in mouse kidney cortex” and the BUN levels ([7]; siRNA before adenine 5 mM in drinking water for 4 days) was “no increase in BUN levels”.

For `OC[C@H]1O[C@@H](c2ccc(Cl)c(Cc3ccc(O[C@H]4CCOC4)cc3)c2)[C@H](O)[C@@H](O)[C@@H]1O` [Empagliflozin], the urine adenine/creatinine levels [8] was “reduces urine adenine/creatinine levels”.

For “H/P siRNA #2: siRNA targeting human and pig IR mRNA, SEQ ID NO. 17 (+) and SEQ ID NO. 18 (−) (sense CAGUACGUCAUUCACAACAACAAGU; antisense ACUUGUUGUUGUGAAUGACGUACUGGU; listed as RNA, chemistry not fully specified)”, the “human insulin receptor mRNA” value [9] was “significant reduction”.

With “H/P IR siRNA #4: siRNA targeting human and pig IR mRNA, SEQ ID NO. 21 (+) and SEQ ID NO. 22 (−) (sense GGAAUGACCAGAGACAUCUAUGAAA; antisense UUUCAUAGAUGUCUCUGGUCAUUCCAA; listed as RNA, chemistry not fully specified)” the “human insulin receptor mRNA” value [9] was “significant reduction”.

With `Nc1ncnc2nc[nH]c12` [Adenine] the ATP generation ([10]; dose dependence) was “dose-dependently reduced ATP generation”, the ATP generation ([10]; high doses of adenine) was “complete reduction of ATP generation” and the “toxicity to kidney cells” value (kidney cells [11]) was “toxic to kidney cells”. The “Type I collagen” value (kidney tubular cells) was “rapidly stimulates Type I collagen”, the fibronectin production (kidney tubular cells) was “stimulates” and the “S6K phosphorylation (P-S6K)” value (mTOR pathway) was “increased within minutes of adenine challenge”. For the same molecule, the heart hypertrophy (mice; adenine administration) was “stimulates”, the “kidney collagen type 1 alpha-2 chain” value (mice; adenine administration) was “stimulates” and the kidney fibronectin (mice; adenine administration) was “stimulates”. For the same molecule, the kidney hypertrophy (mice; adenine administration) was “stimulates”, the “kidney phosphor-S6-kinase (marker of mTOR activity)” value (mice; adenine administration) was “stimulates” and the “plasma KIM-1” value (mice; [14]) was “increases”. The “serum sTNFR1” value (mice; [14]) was “increases” and the “elevation in BUN levels vs non-adenine group” value ([7]; vehicle and adenine 5 mM in drinking water for 4 days) was 3 fold.
